Data as given in patent publication US20060286608A1, “Method for screening transglutaminase 2 inhibitor or activator” (priority 2005, published 2006).

Columns and labels:
TGase 2 [1] = test: Immunohistochemical staining of TGase 2 in rat brain after LPS injection; type: in vivo; conditions: rats killed 1 hour after peritoneal injection of 2.5 mg/kg LPS, compared with saline alone
Procedure: Male Sprague-Dawley rats (Samtako, Osan, Korea) weighing 190-220 g were used as experimental models for intraperitoneal LPS injection as described previously. All experimental procedures were approved by the Seoul National University Care of Experimental Animals Committee. A solution of LPS (2.5 mg/kg) in 0.9% saline or 0.9% sterile saline was intraperitoneally injected into rats. To determine the effect of TGase inhibitors, rats were intraperitoneally injected with an R2 peptide (25 μM), an E2 peptide (25 μM, and dexamethasome (1 mg/kg) at 30 min before and at the time of LPS injection. Dexamethasome injection was used as a positive control.
After 1 hour of intraperitoneal injection with LPS or saline, rats were anesthetized with 1% ketamine (30 mg/kg) and xylazine hydrochloride (4 mg/kg). Brains were perfused through the heart with saline containing 0.5% sodium nitrite and 10 units/ml heparin, followed by perfusion with 4% paraformaldehyde in PBS (0.1 M, pH 7.2). Brains were removed, rinsed with PBS, and cryoprotected in sucrose. Sections were prepared on a sliding microtome (40 μm) at the level of the subfornical organ. A monoclonal antibody (TG-100; NeoMarkers) to TGase 2 was used to subject TGase 2 to immunohistochemical staining. Brain sections were blocked with 1% BSA in PBS and incubated overnight with a primary antibody solution (1:200 dilution). […]

TGase 2 [2] = conditions: microglia after 24 hours of exposure to LPS; previous study (Park et al. 2004); cited from earlier work
iNOS = test: Semi-quantitative RT-PCR of mouse iNOS in BV-2 cells; type: cell-based; conditions: BV-2 cells treated with LPS
Procedure: (§1) Semi-quantitative RT-PCR was performed using competitive mimic templates as internal controls. To prepare total RNA for RT-PCR, the cells were lysed with a TRIzol reagent. Samples of the total RNA were reverse-transcribed at 42° C. using the first strand synthesis kit (Promega) with avian myeloblastosis virus reverse transcriptase, and PCR was performed for the transcripts of iNOS and TGase 2 using corresponding specific primer sets. For each PCR, 1.5 mM MgCl2, 200 μM dNTP, 0.2 μM of each primer, 0.5 unit Taq polymerase, and a predetermined amount of a template were contained in a volume of 20 μl. The mimic templates of TGase 2 and iNOS were constructed by PCR. The mimics of mouse TGase 2 and mouse iNOS were prepared from 2014-2338 bp and 1451-2043 bp, respectively. RT-PCR products thus obtained were 526 bp for target TGase 2, 345 bp for mimic TGase 2, 593 bp for target iNOS, and 345 bp for mimic iNOS. For the RT-PCR, a primer set of SEQ. ID. NOS. 1 and 2, and a primer set of SEQ. ID. NOS.

TGase 2 [3] = test: TGase activity assay in LPS-activated BV-2 microglia; type: cell-based, murine; conditions: BV-2 microglia, after 24 hours of LPS treatment (100 μg/ml)
Procedure: (§2) The BV-2 cells were grown and maintained in DMEM (Dulvecco's modified Eagle's medium) (Invitrogen) supplemented with 10% FCS (fetal calf serum) and penicillin/streptomycin at 37° C. in a humidified incubator under 5% CO2. To activate BV-2, the cells were treated with LPS (100 μg/ml; Sigma) for 24 hours. After LPS treatment for 24 hours with or without inducible nitric-oxide synthase(iNOS) inhibitor, 0, 50, and 100 μM N^G-monomethyl-L-arginine(L-NMMA) (Sigma), proteins were extracted with radioimmunoprecipitation assay buffer (1× phosphate-buffered saline (PBS), 1% Nonidet P-40, 0.5% sodium deoxycholate and 0.1% SDS) containing protease inhibitors from BV-2 harvest, followed by analysis for TGase 2 activity.
Enzymatic activity was determined using a modified TGase assay method for measuring the incorporation of [1,4-^14C] putrescine into succinylated casein.

BV-2 microglia = test: Nitric oxide measurement (Griess reaction) in LPS-activated BV-2 microglia; type: cell-based, murine; conditions: BV-2 microglia, after 24 hours of LPS treatment (100 μg/ml)
Procedure: as §2
Accumulated nitric oxide was measured in the cell supernatant after LPS treatment for 24 hours by Griess reaction. A 200 μl aliquot of the cell supernatant in each well of a 96-well microtiter plate was mixed with 100 μl of the Griess reagent [1% sulfanilamide (Fluka), 0.1% naphthylethylenediamine dihydrochloride (Fluka), 2.5% H3PO4], and the absorbance was read at 540 nm using a plate reader.

TGase 2 [4] = test: Semi-quantitative RT-PCR of mouse TGase 2 in BV-2 cells; type: cell-based; conditions: BV-2 cells treated with LPS
Procedure: as §1

[5] = molecular target: full-length human NF-κB (p65) (human) (UniProt Q04206); test: densitometry of co-immunoprecipitation / Western blot
Chain of full-length human NF-κB (p65) (human) (Q04206 whole entry): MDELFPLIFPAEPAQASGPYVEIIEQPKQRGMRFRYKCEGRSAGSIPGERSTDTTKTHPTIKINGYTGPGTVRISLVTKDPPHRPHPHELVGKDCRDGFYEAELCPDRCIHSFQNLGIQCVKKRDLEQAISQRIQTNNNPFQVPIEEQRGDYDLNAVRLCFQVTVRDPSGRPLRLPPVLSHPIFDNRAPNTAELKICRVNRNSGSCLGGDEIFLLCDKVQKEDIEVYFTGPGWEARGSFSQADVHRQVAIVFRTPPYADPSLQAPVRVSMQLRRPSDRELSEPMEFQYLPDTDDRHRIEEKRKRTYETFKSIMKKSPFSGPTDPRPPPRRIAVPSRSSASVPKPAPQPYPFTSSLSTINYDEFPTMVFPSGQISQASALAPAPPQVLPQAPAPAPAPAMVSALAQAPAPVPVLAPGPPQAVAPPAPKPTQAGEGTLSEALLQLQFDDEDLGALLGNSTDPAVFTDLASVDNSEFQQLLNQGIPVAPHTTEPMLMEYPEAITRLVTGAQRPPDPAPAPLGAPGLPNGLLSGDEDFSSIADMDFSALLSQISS

[6] = molecular target: T1, human recombinant NF-κB(p52) protein, Q00653
T1 chain: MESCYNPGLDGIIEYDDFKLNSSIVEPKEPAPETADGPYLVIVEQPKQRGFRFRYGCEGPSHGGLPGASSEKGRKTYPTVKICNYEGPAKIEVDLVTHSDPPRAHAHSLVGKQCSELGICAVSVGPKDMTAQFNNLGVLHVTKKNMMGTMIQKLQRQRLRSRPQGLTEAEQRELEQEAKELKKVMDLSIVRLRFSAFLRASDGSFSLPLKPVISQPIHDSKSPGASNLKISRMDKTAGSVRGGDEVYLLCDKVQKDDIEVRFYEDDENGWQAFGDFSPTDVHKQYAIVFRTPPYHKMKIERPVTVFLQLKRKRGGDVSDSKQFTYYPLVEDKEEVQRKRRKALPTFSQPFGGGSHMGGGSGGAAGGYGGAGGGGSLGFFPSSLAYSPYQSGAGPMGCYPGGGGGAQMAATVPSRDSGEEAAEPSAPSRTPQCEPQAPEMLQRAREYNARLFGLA

[7] = molecular target: T2, full-length human I-κBα (free form), P25963
T2 chain: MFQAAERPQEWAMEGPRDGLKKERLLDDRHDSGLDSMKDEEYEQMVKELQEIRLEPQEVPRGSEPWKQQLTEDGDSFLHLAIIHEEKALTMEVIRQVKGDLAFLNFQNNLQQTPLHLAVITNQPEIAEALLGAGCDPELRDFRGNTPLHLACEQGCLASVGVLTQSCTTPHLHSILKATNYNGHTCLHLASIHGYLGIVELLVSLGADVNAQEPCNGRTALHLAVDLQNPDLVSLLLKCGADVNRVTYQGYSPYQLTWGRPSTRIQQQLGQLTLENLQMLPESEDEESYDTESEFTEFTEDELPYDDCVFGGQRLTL

## lipopolysaccharide [LPS]
TGase 2 [1]
  TGase 2 expression in brains: increased
TGase 2 [2]
  TGase activity, increase: about 5 fold
iNOS
  iNOS by RT-PCR, increase: 10 fold
TGase 2 [3]
  TGase 2 activity, increase: 5 fold
BV-2 microglia
  release of NO, increase: 10 fold
TGase 2 [4]
  TGase 2 by RT-PCR, increase: 3 fold

## polymerized I-κBα (full-length human I-κBα cross-linked by TGase 2) (from UniProt P25963 1-317)
[5]
  loss of binding efficiency relative to free I-κBα: > 90%

B1: guinea pig liver TGase 2 (protein)
chain: AEDLILERCDLQLEVNGRDHRTADLCRERLVLRRGQPFWLTLHFEGRGYEAGVDTLTFNAVTGPDPSEEAGTMARFSLSSAVEGGTWSASAVDQQDSTVSLLLSTPADAPIGLYRLSLEASTGYQGSSFVLGHFILLYNPRCPADAVYMDSDQERQEYVLTQQGFIYQGSAKFINGIPWNFGQFEDGILDICLMLLDTNPKFLKNAGQDCSRRSRPVYVGRVVSAMVNCNDDQGVLQGRWDNNYSDGVSPMSWIGSVDILRRWKDYGCQRVKYGQCWVFAAVACTVLRCLGIPTRVVTNFNSAHDQNSNLLIEYFRNESGEIEGNKSEMIWNFHCWVESWMTRPDLEPGYEGWQALDPTPQEKSEGTYCCGPVPVRAIKEGHLNVKYDAPFVFAEVNADVVNWIRQKDGSLRKSINHLVVGLKISTKSVGRDEREDITHTYKYPEGSEEEREAFVRANHLNKLATKEEAQEETGVAMRIRVGQNMTMGSDFDIFAYITNGTAESHECQLLLCARIVSYNGVLGPVCSTNDLLNLTLDPFSENSIPLHILYEKYGDYLTESNLIKVRGLLIEPAANSYVLAERDIYLENPEIKIRVLGEPKQNRKLIAEVSLKNPLPVPLLGCIFTVEGAGLTKDQKSVEVPDPVEAGEQAKVRVDLLPTEVGLHKLVVNFECDKLKAVKGYRNVIIGPA
[6]
  polymerization of NF-κB(p52) (in vitro cross-linking, Coomassie staining): The same polymerization was not observed
[7]
  polymerization of I-κBα (in vitro cross-linking, Western blotting): resulted in completely polymerized I-κBα
